# According to patent publication EP1144369B1 (Wyeth Holdings Corporation, priority 1999, dated 2000):
# Structures can show the parent of a compound that is named as a salt.
# Assays:
# [1] = biological target: T1, MMP-1 (Homo sapiens, UniProt P03956); test: MMP-1 inhibition (thiopeptide or fluorescent peptide substrate); assay type: biochemical; conditions: for IC50: plain number = IC50; for inhibition at 10 µM: read-out: IC50 (nM) or % Inhibition (µM) MMP-1
# T1 sequence (P03956 100-469): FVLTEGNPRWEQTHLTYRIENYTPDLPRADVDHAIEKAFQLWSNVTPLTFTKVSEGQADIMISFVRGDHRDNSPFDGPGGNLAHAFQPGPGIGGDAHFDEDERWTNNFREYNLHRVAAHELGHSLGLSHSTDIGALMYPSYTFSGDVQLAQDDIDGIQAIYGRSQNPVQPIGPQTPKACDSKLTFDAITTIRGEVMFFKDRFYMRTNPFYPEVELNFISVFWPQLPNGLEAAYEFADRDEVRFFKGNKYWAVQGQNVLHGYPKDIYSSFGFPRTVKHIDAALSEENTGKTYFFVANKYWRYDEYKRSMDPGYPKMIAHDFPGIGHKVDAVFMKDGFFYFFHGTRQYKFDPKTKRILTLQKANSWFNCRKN
# Method: (§1) The enzyme activity is measured by the rate of the color increase. The thiopeptide substrate is made up fresh as a 20 mM stock in 100% DMSO and the DTNB is dissolved in 100% DMSO as a 100 mM stock and stored in the dark at room temperature. Both the substrate and DTNB are diluted together to 1 mM with substrate buffer (50 mM HEPES pH 7.5, 5 mM CaCl2) before use. The stock of enzyme is diluted with buffer (50 mM HEPES, pH 7.5, 5 mM CaCl2, 0.02% Brij) to the desired final concentration.
# (§2) Alternatively, a fluorescent peptide substrate is used. In this test procedure, the peptide substrate contains a fluorescent group and a quenching group. Upon cleavage of the substrate by an MMP, the fluorescence that is generated is quantitated on the fluorescence plate reader. The assay is run in HCBC assay buffer (50mM HEPES, pH 7.0, 5 mM Ca^+2, 0.02% Brij, 0.5% Cysteine), with human recombinant MMP-1, MMP-9, or MMP-13. The substrate is dissolved in methanol and stored frozen in 1 mM aliquots. For the assay, substrate and enzymes are diluted in HCBC buffer to the desired concentrations. Compounds are added to the 96 well plate containing enzyme and the reaction is started by the addition of substrate.
# (§3) For either the thiopeptide or fluorescent peptide test procedures, the slope of the line is calculated and represents the reaction rate. The linearity of the reaction rate is confirmed (r^2 >0.85). The mean (x±sem) of the control rate is calculated and compared for statistical significance (p<0.05) with drug-treated rates using Dunnett's multiple comparison test.
# [2] = biological target: MMP-9 (Homo sapiens, UniProt P14780); test: MMP-9 inhibition (thiopeptide or fluorescent peptide substrate); assay type: biochemical
# Method: as §1, §2, §3
# [3] = biological target: MMP-13 (Homo sapiens, UniProt P45452); test: MMP-13 inhibition (thiopeptide or fluorescent peptide substrate); assay type: biochemical
# Method: as §1, §2, §3
# [4] = biological target: TNF-α converting enzyme (TACE) (Homo sapiens, UniProt P78536); test: TACE inhibition (fluorescent peptidyl substrate); assay type: biochemical; conditions: read-out: IC50 (nM) or % Inhibition (µM) TACE
# Method: Using 96-well black microtiter plates, each well receives a solution composed of 10 µL TACE (final concentration 1µg/mL), 70µL Tris buffer, pH 7.4 containing 10% glycerol (final concentration 10 mM), and 10 µL of test compound solution in DMSO (final concentration 1µM, DMSO concentration <1%) and incubated for 10 minutes at room temperature. The reaction is initiated by addition of a fluorescent peptidyl substrate (final concentration 100 µM) to each well and then shaking on a shaker for 5 sec.
# The reaction is read (excitation 340 nm, emission 420 nm) for 10 min. and the increase in fluorescence over time is plotted as a linear line. The slope of the line is calculated and represents the reaction rate.
# The linearity of the reaction rate is confirmed (r^2 >0.85). The mean (x±sem) of the control rate is calculated and compared for statistical significance (p<0.05) with drug-treated rates using Dunnett's multiple comparison test.
# [5] = tested on: THP-1 cells; test: THP-1 soluble protein assay (LPS-stimulated human monocytic THP-1 cells); assay type: cell-based; conditions: Homo sapiens, LPS-stimulated THP-1 cells, read-out: % Inhib. @ 3µM THP
# Source text: Mitogenic stimulation of THP-1 cells cause differentiation into macrophage like cells with concomitant secretion of tumor necrosis factor (TNF-a) and TNF receptor (TNF-R p75/80 and TNF-R p55/60) and Interleukin-8 (IL-8), among other proteins. In addition, non-stimulated THP-1 cells shed both the p75/80 and the p55/60 receptors over time. The release of membrane bound TNF-α and possibly TNF-R p75/80 and TNF-R p55/60, but not IL-8, is mediated by an enzyme called TNF-a converting enzyme or TACE.
# THP-1 cells (from ATCC) are a human monocytic cell line which were obtained from the peripheral blood of a person with acute monocytic leukemia. They can be grown in culture and differentiated into macrophage like cells by stimulation with mitogens.
# Each vial of cells are cultured for about two weeks prior to being used for an assay and then are used for only 4 to 6 weeks to screen compounds.
# Cell exposure to DMSO was limited to 0.1 % final concentration. […] Compounds can be evaluated for their effect on basal (non-stimulated) shedding of the receptors by replacing the LPS with […] of THP-1 media. Plates are placed into an incubator set at 5% CO2 and at 37°C. After 4 hours of incubation, […] of tissue culture supernatant (TCS) is removed for use in an TNF-a ELISA. Following 24 hours of incubation, […] of TCS is removed and used for analysis in TNF-R p75/80, TNF-R p55/60 and IL-8 ELISAs.
# In addition, at the 24 hours timepoint, and the cells for each treatment group are collected by resuspension in 500 µl/well of THP-1 media and transferred into a FACS tube. […] The samples are run on a Becton Dickinson FaxCaliber FLOW cytometry machine and the amount of dye taken up by each cell is measured in the high red wavelength (FL3). Only cells with compromised membranes (dead or dying) can take up PI. The percent of live cells is calculated by the number of cells not stained with PI, divided by the total number of cells in the sample. The viability values calculated for the drug treated groups were compared to the viability value calculated for the vehicle treated mitogen stimulated group ("vehicle positive control") to determine the "percent change from control". This "percent change from control" value is an indicator of drug toxicity.
# The quantity of soluble TNF-a, TNF-R p75/80 and TNF-R p55/60 and IL-8 in the TCS of the THP-1 cell cultures are obtained with commercially available ELISAs from R&D Systems, by extrapolation from a standard curve generated with kit standards. The number of cells that either take up or exclude PI are measured by the FLOW cytometry machine and visualized by histograms using commercially available Cytologic software for each treatment group including all controls.
# Biological variability in the magnitude of the response of THP-1 cell cultures requires that experiments be compared on the basis of percent change from "vehicle positive control" for each drug concentration. Percent change in each soluble protein evaluated from the "vehicle positive control" was calculated for each compound concentration with the following formula: % Change =(pg/ml(compound) - pg/ml (veh pos control))/(pg/ml (veh pos control) - pg/ml(veh neg control))x 100 [formula]
# For the soluble protein (TNF-a, p75/80, p55/60, IL-8) studies under stimulated conditions, the mean pg/ml of duplicate wells were determined and the results expressed as percent change from "vehicle positive control". For the soluble protein (p75/80 and p55/60 receptors) studies under non-stimulated conditions, the mean pg/ml of duplicate wells were determined and the results expressed as percent change from "vehicle positive control" utilizing the following formula: % Change =(pg/ml (compound neg control) - pg/ml (veh neg control)/(pg/ml (veh neg control))X 100 [formula]
# IC50 values for each compound are calculated by non-linear regression analysis using customized software utilizing the JUMP statistical package.
# MMP-9, sequence (P14780 94-707): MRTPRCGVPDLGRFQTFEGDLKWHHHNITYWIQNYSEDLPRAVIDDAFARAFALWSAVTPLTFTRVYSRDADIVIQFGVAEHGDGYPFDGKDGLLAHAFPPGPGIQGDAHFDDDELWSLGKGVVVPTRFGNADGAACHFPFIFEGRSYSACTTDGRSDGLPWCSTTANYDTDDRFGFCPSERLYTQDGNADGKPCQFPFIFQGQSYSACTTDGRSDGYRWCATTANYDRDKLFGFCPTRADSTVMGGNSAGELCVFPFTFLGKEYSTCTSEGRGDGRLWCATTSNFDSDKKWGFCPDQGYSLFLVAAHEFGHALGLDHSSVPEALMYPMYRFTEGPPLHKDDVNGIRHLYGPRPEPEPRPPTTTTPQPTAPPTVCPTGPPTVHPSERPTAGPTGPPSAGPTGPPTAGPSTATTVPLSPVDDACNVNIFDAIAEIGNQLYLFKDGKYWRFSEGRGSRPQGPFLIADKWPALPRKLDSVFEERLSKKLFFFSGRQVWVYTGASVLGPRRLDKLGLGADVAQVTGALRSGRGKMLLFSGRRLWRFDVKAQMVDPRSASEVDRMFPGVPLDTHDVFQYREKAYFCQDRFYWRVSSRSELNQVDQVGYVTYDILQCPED
# TNF-α converting enzyme (TACE), sequence (P78536 215-824, species assumed): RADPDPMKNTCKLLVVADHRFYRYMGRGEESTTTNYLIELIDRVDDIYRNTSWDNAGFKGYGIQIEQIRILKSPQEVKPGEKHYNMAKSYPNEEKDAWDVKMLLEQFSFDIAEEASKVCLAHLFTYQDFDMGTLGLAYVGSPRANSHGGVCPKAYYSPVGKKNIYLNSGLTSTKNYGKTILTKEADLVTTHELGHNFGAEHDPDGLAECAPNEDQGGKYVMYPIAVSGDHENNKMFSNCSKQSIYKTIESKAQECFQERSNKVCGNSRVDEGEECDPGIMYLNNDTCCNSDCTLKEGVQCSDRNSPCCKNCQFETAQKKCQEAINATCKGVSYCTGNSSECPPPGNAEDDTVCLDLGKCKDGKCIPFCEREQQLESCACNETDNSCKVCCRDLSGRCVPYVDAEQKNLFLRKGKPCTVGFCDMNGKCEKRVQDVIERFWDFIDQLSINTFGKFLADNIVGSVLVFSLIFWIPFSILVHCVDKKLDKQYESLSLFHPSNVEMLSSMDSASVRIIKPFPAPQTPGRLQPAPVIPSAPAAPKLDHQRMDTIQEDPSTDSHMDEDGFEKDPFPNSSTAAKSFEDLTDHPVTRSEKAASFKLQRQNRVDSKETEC
Compound,IC50 [1],IC50 [2],IC50 [3],IC50 [4],inhibition at 10 µM [1],inhibition at 3 µM [5]
"CCCC#CCOc1ccc(S(=O)(=O)N(C)c2c(C)cc(Br)cc2C(=O)NO)cc1 [Example 57, 5-Bromo-2-[(4-hex-2-ynyloxy-benzenesulfonyl)-methyl-amino]-N-hydroxy-3-methyl-benzamide]",2360 nM,232 nM,358 nM,47 nM,,11%
"COCC#CCOc1ccc(S(=O)(=O)N(C)c2c(C)cc(Br)cc2C(=O)NO)cc1 [Example 58, 5-Bromo-N-hydroxy-2-{[4-(4-methoxy-but-2-ynyloxy)-benzenesulfonyl]-methyl-amino}-3-methyl-benzamide]",7800 nM,387 nM,233 nM,11 nM,,46%
"COc1cccc(C#CCOc2ccc(S(=O)(=O)N(C)c3c(C)cc(Br)cc3C(=O)NO)cc2)c1 [Example 60, 5-Bromo-N-hydroxy-2-({4-[3-(3-methoxy-phenyl)-prop-2-ynyloxy]-benzenesulfonyl}-methyl-amino)-3-methyl-benzamide]",1030 nM,671 nM,935 nM,91 nM,,1%
"COc1ccccc1C#CCOc1ccc(S(=O)(=O)N(C)c2c(C)cc(Br)cc2C(=O)NO)cc1 [Example 61, 5-Bromo-N-hydroxy-2-({4-[3-(2-methoxy-phenyl)-prop-2-ynyloxy]-benzenesulfonyl}-methyl-amino)-3-methyl-benzamide]",,1510 nM,1200 nM,193 nM,52%,0%
"COc1ccc(C#CCOc2ccc(S(=O)(=O)N(C)c3c(C)cc(Br)cc3C(=O)NO)cc2)cc1 [Example 62, 5-Bromo-N-hydroxy-2-({4-[3-(4-methoxy-phenyl)-prop-2-ynyloxy]-benzenesulfonyl}-methyl-amino)-3-methyl-benzamide]",3600 nM,901 nM,588 nM,104 nM,,15%
"CC#CCOc1ccc(S(=O)(=O)N(C)c2c(C)cc(I)cc2C(=O)NO)cc1 [Example 63, 2-[(4-But-2-ynyloxy-benzenesulfonyl)-methyl-amino]-N-hydroxy-5-iodo-3-methyl-benzamide]",901 nM,840 nM,275 nM,16 nM,,87%
"CC#CCOc1ccc(S(=O)(=O)N(Cc2ccccc2)c2c(C)cc(C)cc2C(=O)NO)cc1 [Example 64, 2-[Benzyl-(4-but-2-ynyloxy-benzenesulfonyl)-amino]-N-hydroxy-3,5-dimethyl-benzamide]",1190 nM,830 nM,312 nM,105 nM,,48%
"Cc1cc(Br)cc(C(=O)NO)c1N(C)S(=O)(=O)c1ccc(OCC#CCN2CCCC2)cc1 [Example 65, 5-Bromo-N-hydroxy-3-methyl-2-{methyl-[4-(4-pyrrolidin-1-yl-but-2-ynyloxy)-benzenesulfonyl]-amino}-benzamide]",3350 nM,602 nM,537 nM,148 nM,,12%

# The next lines start with results.
IC50 [1],IC50 [2],IC50 [3],IC50 [4],inhibition at 10 µM [1],Compound,inhibition at 3 µM [5]
,2830 nM,2380 nM,346 nM,21%,"CCN(CC)CC#CCOc1ccc(S(=O)(=O)N(C)c2c(C)cc(Br)cc2C(=O)NO)cc1 [Example 66, 5-Bromo-2-{[4-(4-diethylamino-but-2-ynyloxy)-benzenesulfonyl]-methyl-amino}-N-hydroxy-3-methyl-benzamide]",5%
,396 nM,177 nM,30 nM,25%,"Cc1cc(Br)cc(C(=O)NO)c1N(C)S(=O)(=O)c1ccc(OCC#CCOC2CCCCO2)cc1 (stereo not drawn) [Example 69, 5-Bromo-N-hydroxy-3-methyl-2-(methyl-{4-[4-(tetrahydro-pyran-2-yloxy)-but-2-ynyloxy]-benzenesulfonyl}-amino)-benzamide]",19%
1920 nM,28 nM,47 nM,42 nM,,"CC#CCOc1ccc(S(=O)(=O)N(C)c2c(CN3CCN(C)CC3)cc(-c3ccccc3)cc2C(=O)NO)cc1 [Example 76, 4-[(4-But-2-ynyloxy-benzenesulfonyl)-methyl-amino]-5-(4-methyl-piperazin-1-ylmethyl)-biphenyl-3-carboxylic acid hydroxyamide dihydro-chloride salt]",95%
1530 nM,455 nM,433 nM,122 nM,,"C#CC(C)Oc1ccc(S(=O)(=O)N(C)c2c(C)cc(Br)cc2C(=O)NO)cc1 (stereo not drawn) [Example 79, 5-Bromo-N-hydroxy-3-methyl-2-{methyl-[4-(1-methyl-prop-2-ynyloxy)-benzenesulfonyl]-amino}-benzamide]",9%
